Test results reported in article PMC5852267, “Influence of quaternary cation compound on the size of the Escherichia coli small multidrug resistance protein, EmrE” (Biochemistry and Biophysics Reports, 2018).
Read-outs that look alike come from different tables or passages of the source.

Biological target: T1, EmrE (EmrE-Myc-His6; His6-myc-EmrE) (Escherichia coli, UniProt P23895)
T1 construct: plasmid pTZEmrEmH6; E. coli C43(DE3); dimer considered minimal functional unit
Experiment: biochemical
Assay type: binding

T1 sequence (P23895 whole entry): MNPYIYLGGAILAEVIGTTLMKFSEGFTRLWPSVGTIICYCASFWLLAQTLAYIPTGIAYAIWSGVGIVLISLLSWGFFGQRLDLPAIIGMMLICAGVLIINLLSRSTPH

## CCCCCCCCCCCCCCCC[N+](C)(C)Cc1ccccc1 [CTC, Cetalkonium chloride (Banjela) (16 Chain)]
read-out: Kd
  Kd: 407 ± 133 µM

## CN(C)c1ccc(C(=C2C=CC(=[N+](C)C)C=C2)c2ccc(N(C)C)cc2)cc1 [CV, Crystal Violet]
  Kd: 16 ± 5.7 µM

## Cc1cc(N)c2ccccc2[n+]1CCCCCCCCCC[n+]1c(C)cc(N)c2ccccc21 [DC, Dequalinium chloride]
  Kd: 11 ± 2.2 µM

## CC[n+]1c(-c2ccccc2)c2cc(N)ccc2c2ccc(N)cc21 [EB, Ethidium bromide]
  Kd: 1 ± 0.3 µM

## C[n+]1ccc(-c2cc[n+](C)cc2)cc1 [MV, Methyl Viologen]
read-out: Kd
  Kd: 179 ± 19.9 µM

## Nc1ccc2cc3ccc(N)cc3nc2c1 [PRO, Proflavine]
  Kd: 14 ± 5 µM

## CCN=c1cc2oc3cc(NCC)c(C)cc3c(-c3ccccc3C(=O)OCC)c-2cc1C [RH, Rhodamine 6 G]
  Kd: 12 ± 1.4 µM

## c1ccc([P+](c2ccccc2)(c2ccccc2)c2ccccc2)cc1 [TPP, Tetraphenylphosphonium chloride]
read-out: Kd
  Kd: 5 ± 3.7 µM
